Assay results published in patent EP2468303A1, “Functionalized nucleic acids and particles comprising them for the treatment of HIV infections” (priority 2010, dated 2012).

Test system: pNL4.3 virus
Test: Time-of-addition experiment in single-round infection assay
Format: cell-based, HIV-1
Conditions: Hela P4 cells, 100 nM, whatever the time of addition post-infection
Source text: Antiviral activity was quantified using the above-described CPRG assay.

Cc1nnc(C(=O)NC(C)(C)c2nc(C(=O)NCc3ccc(F)cc3)c(O)c(=O)n2C)o1 [raltegravir]
viral replication blocked: < 100%
